From ChEMBL document CHEMBL1909046, “DrugMatrix in vitro pharmacology data”

Columns and labels:
[1] = molecular target: Platelet-activating factor receptor (Homo sapiens, UniProt P25105); format: tissue-based; also: in other assays of this panel Not Active means under 50% inhibition at 10 µM
[2] = molecular target: Cytochrome P450 2D6 (Homo sapiens, UniProt P10635); conditions: bti-tn-5b1-4; also: in other assays of this panel Not Active means under 50% inhibition at 10 µM
[3] = molecular target: T1, Muscarinic acetylcholine receptor M4 (Homo sapiens, UniProt P08173); format: cell membranes, CHO-K1, Membrane; conditions: cho-k1; also: in other assays of this panel Not Active means under 50% inhibition at 10 µM
T1 sequence (P08173 whole entry): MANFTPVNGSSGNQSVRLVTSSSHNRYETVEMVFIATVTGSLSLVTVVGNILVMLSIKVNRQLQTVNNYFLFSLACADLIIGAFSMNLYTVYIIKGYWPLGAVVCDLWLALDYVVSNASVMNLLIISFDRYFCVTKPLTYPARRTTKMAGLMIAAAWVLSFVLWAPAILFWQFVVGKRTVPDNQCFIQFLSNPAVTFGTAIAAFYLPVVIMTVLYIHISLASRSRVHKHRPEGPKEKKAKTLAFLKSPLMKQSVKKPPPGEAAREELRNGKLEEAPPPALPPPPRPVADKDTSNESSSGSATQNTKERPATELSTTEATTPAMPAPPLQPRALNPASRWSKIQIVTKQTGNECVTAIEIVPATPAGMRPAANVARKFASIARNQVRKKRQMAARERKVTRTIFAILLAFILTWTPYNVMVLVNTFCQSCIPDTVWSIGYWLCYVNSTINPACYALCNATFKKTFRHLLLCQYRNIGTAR

[4] = DRUGMATRIX: Leukotriene, BLT (LTB4) radioligand binding (ligand: [3H]LTB4); format: cell membranes, Membrane; conditions: u-937; Not Active = under 50% inhibition at 10 µM
[5] = molecular target: T2, Cytochrome P450 2A6 (Homo sapiens, UniProt P11509); conditions: bti-tn-5b1-4; also: in other assays of this panel Not Active means under 50% inhibition at 10 µM
T2 sequence (P11509 whole entry): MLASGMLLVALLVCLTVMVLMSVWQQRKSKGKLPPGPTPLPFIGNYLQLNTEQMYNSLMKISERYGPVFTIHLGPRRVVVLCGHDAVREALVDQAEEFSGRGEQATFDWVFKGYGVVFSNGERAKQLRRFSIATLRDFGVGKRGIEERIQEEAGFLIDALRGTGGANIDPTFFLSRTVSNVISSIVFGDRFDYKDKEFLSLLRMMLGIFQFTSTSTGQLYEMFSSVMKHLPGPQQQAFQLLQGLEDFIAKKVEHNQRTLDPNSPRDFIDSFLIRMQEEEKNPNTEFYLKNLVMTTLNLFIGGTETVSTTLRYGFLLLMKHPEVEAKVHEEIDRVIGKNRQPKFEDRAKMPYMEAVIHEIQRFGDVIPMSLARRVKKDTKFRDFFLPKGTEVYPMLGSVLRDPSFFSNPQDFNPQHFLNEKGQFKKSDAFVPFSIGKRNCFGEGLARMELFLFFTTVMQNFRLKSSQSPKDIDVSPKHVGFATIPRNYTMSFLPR

[6] = DRUGMATRIX: Atrial Natriuretic Factor (ANF) radioligand binding (ligand: [125I] ANF (rat)); format: cell membranes, Cavia porcellus, Dunkin-Hartley, Adrenal gland, Membrane; conditions: Not Active = under 50% inhibition at 10 µM
[7] = molecular target: T3, 5-hydroxytryptamine receptor 2C (Homo sapiens, UniProt P28335); assay: DRUGMATRIX: Serotonin (5-Hydroxytryptamine) 5-HT2C radioligand binding (ligand: [3H] Mesulergine); format: cell membranes, CHO-K1, Membrane; conditions: cho-k1; Not Active = under 50% inhibition at 10 µM
T3 sequence (P28335 whole entry): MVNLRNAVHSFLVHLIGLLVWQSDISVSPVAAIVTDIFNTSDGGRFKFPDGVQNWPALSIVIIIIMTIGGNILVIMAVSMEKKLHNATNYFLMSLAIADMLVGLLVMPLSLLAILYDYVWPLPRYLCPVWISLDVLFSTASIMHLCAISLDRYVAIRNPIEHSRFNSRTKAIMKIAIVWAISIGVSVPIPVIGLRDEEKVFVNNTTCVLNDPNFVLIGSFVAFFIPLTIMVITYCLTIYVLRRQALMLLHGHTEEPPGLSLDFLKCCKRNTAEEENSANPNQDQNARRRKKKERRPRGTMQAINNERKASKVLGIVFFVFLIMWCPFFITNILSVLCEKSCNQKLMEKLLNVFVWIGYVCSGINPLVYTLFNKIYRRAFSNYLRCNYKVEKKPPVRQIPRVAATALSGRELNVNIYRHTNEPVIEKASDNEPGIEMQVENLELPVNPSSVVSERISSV

Cytochrome P450 2D6, sequence (P10635 whole entry): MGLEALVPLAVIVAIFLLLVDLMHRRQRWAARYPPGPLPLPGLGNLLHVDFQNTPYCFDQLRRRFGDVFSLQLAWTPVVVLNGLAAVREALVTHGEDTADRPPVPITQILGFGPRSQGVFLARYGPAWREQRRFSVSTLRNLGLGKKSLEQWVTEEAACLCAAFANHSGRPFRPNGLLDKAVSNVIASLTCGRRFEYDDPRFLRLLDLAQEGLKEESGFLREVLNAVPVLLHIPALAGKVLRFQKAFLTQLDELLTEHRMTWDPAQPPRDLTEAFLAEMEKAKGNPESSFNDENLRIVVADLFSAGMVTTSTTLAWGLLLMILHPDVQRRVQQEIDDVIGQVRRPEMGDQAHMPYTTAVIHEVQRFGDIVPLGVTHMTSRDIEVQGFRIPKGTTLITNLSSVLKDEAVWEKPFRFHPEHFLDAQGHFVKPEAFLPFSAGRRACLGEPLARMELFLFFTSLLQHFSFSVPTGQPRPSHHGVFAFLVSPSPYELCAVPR
Platelet-activating factor receptor, sequence (P25105 whole entry): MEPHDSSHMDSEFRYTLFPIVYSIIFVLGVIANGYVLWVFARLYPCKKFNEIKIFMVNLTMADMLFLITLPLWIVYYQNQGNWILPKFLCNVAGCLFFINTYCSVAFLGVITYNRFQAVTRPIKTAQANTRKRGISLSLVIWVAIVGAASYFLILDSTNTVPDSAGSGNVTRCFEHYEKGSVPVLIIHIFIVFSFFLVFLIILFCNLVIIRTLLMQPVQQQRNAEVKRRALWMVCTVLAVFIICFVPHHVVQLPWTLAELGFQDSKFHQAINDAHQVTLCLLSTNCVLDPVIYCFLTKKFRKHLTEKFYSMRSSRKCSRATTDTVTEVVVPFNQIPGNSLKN

NYSTATIN
Not Active: IC50 [1] | Ki [1] | IC50 [2] | Ki [2] | IC50 [3] | Ki [3] | IC50 [4] | Ki [4] | IC50 [5] | Ki [5] | IC50 [6] | Ki [6] | IC50 [7] | Ki [7]
